From article PMC4389443 (Respiratory Research, 2015)

Tests used:
BALB/c mice = assay: CXCL1/KC induced cremaster inflammation, intravital microscopy; type: in vivo, mouse; details: 6 mg.kg^−1 oral, 1 hour prior to rCXCL1
Procedure: BALB/c mice were anesthetized and 500 ng of murine rCXCL1 in 0.2 ml of saline was administered locally by s.c. injection beneath the right scrotal skin using a 30-G needle, 2 hours before exteriorization. The left cremaster was then prepared for intravital microscopy, as previously described. Briefly, an incision was made in the scrotal skin to expose the left cremaster muscle, which was then carefully removed from the associated fascia. A lengthwise incision was made on the ventral surface of the cremaster muscle using a cautery. The testicle and the epididymis were separated from the underlying muscle and were moved into the abdominal cavity. The muscle was then spread out over an optically clear viewing pedestal and was secured along the edges with a 4–0 suture. […] A video camera (CDD; Sony) was used to project the images onto a monitor, and the images were recorded for playback analysis using a conventional DVD. […] The number of rolling and adherent leukocytes was determined offline during video playback analysis. […] The flux of rolling cells was measured as the number of rolling cells passing by a given point in the venule per minute. A leukocyte was considered to be adherent if it remained stationary for at least 30 s, and total leukocyte adhesion was quantified as the number of adherent cells within a 100 μm length of venule.

[1] = target: T1, VAP-1/SSAO in gonadal fat tissue homogenate (Oryctolagus cuniculus, UniProt A0A5F9CS97); assay: SSAO activity, gonadal fat tissue homogenate; type: biochemical; details: rabbit
T1 sequence (A0A5F9CS97 1-763): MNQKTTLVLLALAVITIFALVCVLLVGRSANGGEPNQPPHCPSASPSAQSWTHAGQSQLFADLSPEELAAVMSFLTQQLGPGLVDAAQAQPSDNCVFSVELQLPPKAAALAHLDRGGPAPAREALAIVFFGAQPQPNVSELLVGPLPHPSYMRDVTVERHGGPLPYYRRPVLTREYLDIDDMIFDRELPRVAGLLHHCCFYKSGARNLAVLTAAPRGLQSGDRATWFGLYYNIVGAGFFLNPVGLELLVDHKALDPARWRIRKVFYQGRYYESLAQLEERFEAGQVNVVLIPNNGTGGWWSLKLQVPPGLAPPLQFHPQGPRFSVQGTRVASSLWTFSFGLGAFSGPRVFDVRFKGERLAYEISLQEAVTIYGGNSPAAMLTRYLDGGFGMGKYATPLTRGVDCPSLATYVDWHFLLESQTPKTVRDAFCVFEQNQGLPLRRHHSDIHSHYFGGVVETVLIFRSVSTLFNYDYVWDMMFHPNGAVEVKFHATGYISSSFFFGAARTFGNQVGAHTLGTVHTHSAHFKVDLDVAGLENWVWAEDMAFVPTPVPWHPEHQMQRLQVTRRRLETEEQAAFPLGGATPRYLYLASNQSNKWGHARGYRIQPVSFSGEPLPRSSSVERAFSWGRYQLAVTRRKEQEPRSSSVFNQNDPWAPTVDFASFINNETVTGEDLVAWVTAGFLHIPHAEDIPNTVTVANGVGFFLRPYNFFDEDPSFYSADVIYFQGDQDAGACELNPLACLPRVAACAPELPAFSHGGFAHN

Plasma stability = type: in vitro ADME; details: human plasma, 1 hour incubation
C57/BL6 mice = assay: Cecal ligation and puncture (CLP) induced sepsis
[2] = target: T2, VAP-1/SSAO in gonadal fat tissue homogenate (Canis lupus familiaris, UniProt A0A8I3MYY3); assay: SSAO activity, gonadal fat tissue homogenate; type: biochemical; details: dog
T2 sequence (A0A8I3MYY3 1-763): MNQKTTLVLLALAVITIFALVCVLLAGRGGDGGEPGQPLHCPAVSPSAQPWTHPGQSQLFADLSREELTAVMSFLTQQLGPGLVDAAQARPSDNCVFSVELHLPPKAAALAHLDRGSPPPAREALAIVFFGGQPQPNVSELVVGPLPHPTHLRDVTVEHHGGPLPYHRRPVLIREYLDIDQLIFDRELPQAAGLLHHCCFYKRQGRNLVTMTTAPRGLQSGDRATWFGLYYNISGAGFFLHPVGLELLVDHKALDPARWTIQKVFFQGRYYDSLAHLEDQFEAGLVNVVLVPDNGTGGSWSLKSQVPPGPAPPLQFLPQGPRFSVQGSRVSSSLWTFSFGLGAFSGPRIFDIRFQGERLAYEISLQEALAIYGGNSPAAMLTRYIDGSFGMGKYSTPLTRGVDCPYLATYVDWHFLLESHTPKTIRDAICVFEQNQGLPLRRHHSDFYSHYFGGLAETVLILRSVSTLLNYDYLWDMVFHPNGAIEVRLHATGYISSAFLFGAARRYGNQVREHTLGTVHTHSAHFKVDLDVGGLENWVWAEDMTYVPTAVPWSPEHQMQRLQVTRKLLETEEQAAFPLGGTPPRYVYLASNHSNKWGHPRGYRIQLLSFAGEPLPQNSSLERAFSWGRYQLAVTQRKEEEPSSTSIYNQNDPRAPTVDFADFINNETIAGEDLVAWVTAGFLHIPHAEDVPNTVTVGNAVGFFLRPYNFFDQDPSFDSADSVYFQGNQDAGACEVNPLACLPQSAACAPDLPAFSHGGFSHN

HepG2 cells = assay: Cell toxicity in HepG2 cells; type: cell-based; details: highest concentration tested 100 μM
[3] = system: over 100 different macromolecular targets; assay: Off-target activity, Ricerca lead seeker selectivity panel; details: other amine oxidases or over 100 different macromolecular targets
carbonic anhydrase II = carbonic anhydrase II (Homo sapiens, UniProt P00918); assay: Carbonic anhydrase II activity; type: biochemical
Swiss mice = assay: LPS airway inflammation, 24 hour time point; type: in vivo, mouse; details: 24 hours after LPS
Procedure: Given the short half-life of PXS-4728, a second dose was administered to ensure that newly synthesized SSAO would also be blocked.

[4] = 6 hours, 6 mg.kg^−1 oral 1 hour prior to surgery
[5] = 6 hours, PXS-4728A 6 mg.kg^−1, dexamethasone 5 mg.kg^−1, oral 1 hour prior to surgery
[6] = 4 mg/kg pre-treatment, 6 mg/kg at 6 hours

For `CC(C)(C)NC(=O)c1ccc(OC/C(=C/F)CN)cc1` [PXS-4728A], which “CXCL1/KC increased number of adhering leukocytes” value (BALB/c mice) is on record?
The value was “abolished”.

And the “CXCL1/KC increased number of rolling leukocytes” value (BALB/c mice)?
The value was “abolished”.

And the IC50 [1]?
The IC50 was less than 10 nM.

What about the “Plasma stability, remaining” value (Plasma stability) of the same molecule?
Its value is greater than 90%.

And the “Myeloperoxidase in the lung” value (C57/BL6 mice; [4])?
The value was “reduction”.

What about the “Neutrophils in bronchoalveolar lavage” value (C57/BL6 mice; [4]) of the same molecule?
Its value is “reduction”.

And the “Total cells in bronchoalveolar lavage” value (C57/BL6 mice; [4])?
The value was “reduction”.

What about the Peritoneal neutrophils (C57/BL6 mice; [5]) of the same molecule?
The Peritoneal neutrophils was “not affected”.

What about the “Total peritoneal inflammatory cells” value (C57/BL6 mice; [5]) of the same molecule?
Its value is “not affected”.

And the Survival rate (C57/BL6 mice; treated 1 hour prior and daily thereafter, control animals 50%, p = 0.057)?
The Survival rate was 90%.

And the IC50 [2]?
Its IC50 is less than 10 nM.

And the Cell toxicity (HepG2 cells)?
Its Cell toxicity is “does not induce cell toxicity”.

And the Off-target activity [3]?
The Off-target activity was “does not have any significant off-target activity”.

What about the “Activity for carbonic anhydrase II” value (carbonic anhydrase II) of the same molecule?
Its value is “removing all activity”.

What about the Circulating neutrophils (Swiss mice) of the same molecule?
Its Circulating neutrophils is “had no effect”.

What about the “Total cells in blood” value (Swiss mice) of the same molecule?
Its value is “had no effect”.

And the “Influx of neutrophils in BALF” value (Swiss mice; [6])?
Its value is “reduced”.

And the “Influx of total cells in BALF” value (Swiss mice; [6])?
The value was “reduced”.
